# Measurements reported in the supplement of paper PMC6461962.
# Structures can show the parent of a compound that is named as a salt.
# Tested on: Pseudomonas fluorescens FW300-N2E2
# Details: medium / electron acceptor: N2E2 Glucose/aerobic
# How it was run: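 Growth was read as OD600 at 24 h, or at 48 h for R2A strain comparisons, after washed cells at a final OD600 of 0.02 (80 µL) were added to 384-well plates holding serially diluted inorganic ion salts or equimolar nitrilotriacetic acid complexes. Aerobic plates were shaken at 700 rpm at 30 °C, but anaerobic plates were not. IC50 was calculated with the drc R package from at least two biological replicate curves, scaled between water and growth-blocking antibiotic controls and excluding wells with precipitate.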
row,Compound,IC50 growth inhibition [mM]
1,O.O.O.O.O.O.[Al+3].[Cl-].[Cl-].[Cl-] [Aluminum chloride hydrate],> 5
2,Cl.N [Ammonium chloride],354
3,O.O.[Ba+2].[Cl-].[Cl-] [Barium chloride dihydrate],> 5
4,O.O.O.O.O.[Cd+2].[Cd+2].[Cl-].[Cl-].[Cl-].[Cl-] [Cadmium chloride hemipentahydrate],< 0.00244
5,[Ca+2].[Cl-].[Cl-] [Calcium chloride dihydrate],> 500
6,[Ce+3].[Cl-].[Cl-].[Cl-] [Cerium(III) chloride],< 0.244
7,[Cl-].[Cs+] [Cesium chloride],< 0.244
8,O.O.O.O.O.O.[Cl][Cr]([Cl])[Cl] [Chromium(III) Chloride Hexahydrate],< 0.00244
9,O.O.O.O.O.O.[Cl-].[Cl-].[Co+2] [Cobalt chloride hexahydrate],< 0.00244
10,"O=C(O)C[C@H](NCCN[C@@H](CC(=O)O)C(=O)O)C(=O)O [Ethylenediamine-N,N'-disuccinic acid]",< 0.122
11,[Cl][Fe]([Cl])[Cl] [Ferric chloride],> 50
12,[Cl][Ga]([Cl])[Cl] [Gallium(III)chloride],< 0.0244
13,NO [Hydroxylamine hydrochloride],< 0.244
14,O.[Cl-].[Li+] [Lithium chloride hydrate],349
15,O.O.O.O.O.O.[Cl-].[Cl-].[Mg+2] [Magnesium chloride hexahydrate],276
16,O.O.O.O.[Cl][Mn][Cl] [Manganese (II) chloride tetrahydrate],> 5
17,O.O.O.O.O.O.[Cl][Ni][Cl] [Nickel (II) chloride hexahydrate],0.0112
18,O=C(O)CN(CC(=O)O)CC(=O)O [Nitrilotriacetic acid],0.345
19,[Cl][Pd][Cl] [Palladium(II) chloride],< 0.00244
20,[Cl-].[K+] [Potassium Chloride],> 500
21,[K+].[K+].[O]=[Cr](=[O])([O-])[O-] [Potassium chromate],< 0.244
22,O.O=[Te]([O-])[O-].[K+].[K+] [Potassium tellurite hydrate],< 0.00244

# Same assay, conditions: medium / electron acceptor: N2E2 Glucose/aerobic 0.25xMinerals
row,Compound,IC50 growth inhibition [mM]
1,O.O.O.O.O.O.[Al+3].[Cl-].[Cl-].[Cl-] [Aluminum chloride hydrate],0.409
2,Cl.N [Ammonium chloride],347
3,O.O.[Ba+2].[Cl-].[Cl-] [Barium chloride dihydrate],3.19
4,O.O.O.O.O.[Cd+2].[Cd+2].[Cl-].[Cl-].[Cl-].[Cl-] [Cadmium chloride hemipentahydrate],< 0.00244
5,[Ca+2].[Cl-].[Cl-] [Calcium chloride dihydrate],> 500
6,[Ce+3].[Cl-].[Cl-].[Cl-] [Cerium(III) chloride],< 0.244
7,[Cl-].[Cs+] [Cesium chloride],< 0.244
8,O.O.O.O.O.O.[Cl][Cr]([Cl])[Cl] [Chromium(III) Chloride Hexahydrate],< 0.00244
9,O.O.O.O.O.O.[Cl-].[Cl-].[Co+2] [Cobalt chloride hexahydrate],< 0.00244
10,"O=C(O)C[C@H](NCCN[C@@H](CC(=O)O)C(=O)O)C(=O)O [Ethylenediamine-N,N'-disuccinic acid]",< 0.122
11,[Cl][Fe]([Cl])[Cl] [Ferric chloride],> 50
12,[Cl][Ga]([Cl])[Cl] [Gallium(III)chloride],< 0.0244
13,NO [Hydroxylamine hydrochloride],< 0.244
14,O.[Cl-].[Li+] [Lithium chloride hydrate],> 500
15,O.O.O.O.O.O.[Cl-].[Cl-].[Mg+2] [Magnesium chloride hexahydrate],431
16,O.O.O.O.[Cl][Mn][Cl] [Manganese (II) chloride tetrahydrate],> 5
17,O.O.O.O.O.O.[Cl][Ni][Cl] [Nickel (II) chloride hexahydrate],0.00556
18,O=C(O)CN(CC(=O)O)CC(=O)O [Nitrilotriacetic acid],21.4
19,[Cl][Pd][Cl] [Palladium(II) chloride],< 0.00244
20,[Cl-].[K+] [Potassium Chloride],> 500
21,[K+].[K+].[O]=[Cr](=[O])([O-])[O-] [Potassium chromate],< 0.244
22,O.O=[Te]([O-])[O-].[K+].[K+] [Potassium tellurite hydrate],< 0.00244

# Same assay, conditions: medium / electron acceptor: N2E2 Glucose/aerobic (2)
row,Compound,IC50 growth inhibition [mM]
1,O.O.O.O.O.O.[Al+3].[Cl-].[Cl-].[Cl-] [Aluminum chloride hydrate],> 5
2,Cl.N [Ammonium chloride],330
3,O.O.[Ba+2].[Cl-].[Cl-] [Barium chloride dihydrate],2.84
4,O.O.O.O.O.[Cd+2].[Cd+2].[Cl-].[Cl-].[Cl-].[Cl-] [Cadmium chloride hemipentahydrate],< 0.00244
5,[Ca+2].[Cl-].[Cl-] [Calcium chloride dihydrate],> 500
6,[Ce+3].[Cl-].[Cl-].[Cl-] [Cerium(III) chloride],< 0.244
7,[Cl-].[Cs+] [Cesium chloride],< 0.244
8,O.O.O.O.O.O.[Cl][Cr]([Cl])[Cl] [Chromium(III) Chloride Hexahydrate],< 0.00244
9,O.O.O.O.O.O.[Cl-].[Cl-].[Co+2] [Cobalt chloride hexahydrate],< 0.00244
10,"O=C(O)C[C@H](NCCN[C@@H](CC(=O)O)C(=O)O)C(=O)O [Ethylenediamine-N,N'-disuccinic acid]",< 0.122
11,[Cl][Fe]([Cl])[Cl] [Ferric chloride],39.2
12,[Cl][Ga]([Cl])[Cl] [Gallium(III)chloride],< 0.0244
13,NO [Hydroxylamine hydrochloride],< 0.244
14,O.[Cl-].[Li+] [Lithium chloride hydrate],33.9
15,O.O.O.O.O.O.[Cl-].[Cl-].[Mg+2] [Magnesium chloride hexahydrate],366
16,O.O.O.O.[Cl][Mn][Cl] [Manganese (II) chloride tetrahydrate],1.57
17,O.O.O.O.O.O.[Cl][Ni][Cl] [Nickel (II) chloride hexahydrate],0.0143
18,O=C(O)CN(CC(=O)O)CC(=O)O [Nitrilotriacetic acid],6.51
19,[Cl][Pd][Cl] [Palladium(II) chloride],< 0.00244
20,[Cl-].[K+] [Potassium Chloride],> 500
21,[K+].[K+].[O]=[Cr](=[O])([O-])[O-] [Potassium chromate],< 0.244
22,O.O=[Te]([O-])[O-].[K+].[K+] [Potassium tellurite hydrate],< 0.00244

# Same assay, conditions: medium / electron acceptor: N2E2 KB/aerobic
row,Compound,IC50 growth inhibition [mM]
1,O.O.O.O.O.O.[Al+3].[Cl-].[Cl-].[Cl-] [Aluminum chloride hydrate],> 5
2,Cl.N [Ammonium chloride],333
3,O.O.[Ba+2].[Cl-].[Cl-] [Barium chloride dihydrate],3.22
4,O.O.O.O.O.[Cd+2].[Cd+2].[Cl-].[Cl-].[Cl-].[Cl-] [Cadmium chloride hemipentahydrate],0.117
5,[Ca+2].[Cl-].[Cl-] [Calcium chloride dihydrate],> 500
6,[Ce+3].[Cl-].[Cl-].[Cl-] [Cerium(III) chloride],< 0.244
7,[Cl-].[Cs+] [Cesium chloride],0.791
8,O.O.O.O.O.O.[Cl][Cr]([Cl])[Cl] [Chromium(III) Chloride Hexahydrate],> 5
9,O.O.O.O.O.O.[Cl-].[Cl-].[Co+2] [Cobalt chloride hexahydrate],0.0208
10,"O=C(O)C[C@H](NCCN[C@@H](CC(=O)O)C(=O)O)C(=O)O [Ethylenediamine-N,N'-disuccinic acid]",< 0.122
11,[Cl][Fe]([Cl])[Cl] [Ferric chloride],> 50
12,[Cl][Ga]([Cl])[Cl] [Gallium(III)chloride],< 0.0244
13,NO [Hydroxylamine hydrochloride],< 0.244
14,O.[Cl-].[Li+] [Lithium chloride hydrate],325
15,O.O.O.O.O.O.[Cl-].[Cl-].[Mg+2] [Magnesium chloride hexahydrate],354
16,O.O.O.O.[Cl][Mn][Cl] [Manganese (II) chloride tetrahydrate],> 5
17,O.O.O.O.O.O.[Cl][Ni][Cl] [Nickel (II) chloride hexahydrate],3.92
18,O=C(O)CN(CC(=O)O)CC(=O)O [Nitrilotriacetic acid],15.3
19,[Cl][Pd][Cl] [Palladium(II) chloride],3.73
20,[Cl-].[K+] [Potassium Chloride],> 500
21,[K+].[K+].[O]=[Cr](=[O])([O-])[O-] [Potassium chromate],< 0.244
22,O.O=[Te]([O-])[O-].[K+].[K+] [Potassium tellurite hydrate],< 0.00244

# Same assay, conditions: medium / electron acceptor: N2E2 LB/aerobic
row,Compound,IC50 growth inhibition [mM]
1,O.O.O.O.O.O.[Al+3].[Cl-].[Cl-].[Cl-] [Aluminum chloride hydrate],> 5
2,Cl.N [Ammonium chloride],372
3,O.O.[Ba+2].[Cl-].[Cl-] [Barium chloride dihydrate],> 5
4,O.O.O.O.O.[Cd+2].[Cd+2].[Cl-].[Cl-].[Cl-].[Cl-] [Cadmium chloride hemipentahydrate],0.141
5,[Ca+2].[Cl-].[Cl-] [Calcium chloride dihydrate],309
6,[Ce+3].[Cl-].[Cl-].[Cl-] [Cerium(III) chloride],< 0.244
7,[Cl-].[Cs+] [Cesium chloride],5.91
8,O.O.O.O.O.O.[Cl][Cr]([Cl])[Cl] [Chromium(III) Chloride Hexahydrate],4.91
9,O.O.O.O.O.O.[Cl-].[Cl-].[Co+2] [Cobalt chloride hexahydrate],0.175
10,"O=C(O)C[C@H](NCCN[C@@H](CC(=O)O)C(=O)O)C(=O)O [Ethylenediamine-N,N'-disuccinic acid]",< 0.122
11,[Cl][Fe]([Cl])[Cl] [Ferric chloride],> 50
12,[Cl][Ga]([Cl])[Cl] [Gallium(III)chloride],< 0.0244
13,NO [Hydroxylamine hydrochloride],< 0.244
14,O.[Cl-].[Li+] [Lithium chloride hydrate],354
15,O.O.O.O.O.O.[Cl-].[Cl-].[Mg+2] [Magnesium chloride hexahydrate],354
16,O.O.O.O.[Cl][Mn][Cl] [Manganese (II) chloride tetrahydrate],3.79
17,O.O.O.O.O.O.[Cl][Ni][Cl] [Nickel (II) chloride hexahydrate],3.59
18,O=C(O)CN(CC(=O)O)CC(=O)O [Nitrilotriacetic acid],54.7
19,[Cl][Pd][Cl] [Palladium(II) chloride],> 5
20,[Cl-].[K+] [Potassium Chloride],> 500
21,[K+].[K+].[O]=[Cr](=[O])([O-])[O-] [Potassium chromate],< 0.244
22,O.O=[Te]([O-])[O-].[K+].[K+] [Potassium tellurite hydrate],< 0.00244

# Same assay, conditions: medium / electron acceptor: N2E2 LB/aerobic (2)
row,Compound,IC50 growth inhibition [mM]
1,O.O.O.O.O.O.[Al+3].[Cl-].[Cl-].[Cl-] [Aluminum chloride hydrate],> 5
2,Cl.N [Ammonium chloride],422
3,O.O.[Ba+2].[Cl-].[Cl-] [Barium chloride dihydrate],> 5
4,O.O.O.O.O.[Cd+2].[Cd+2].[Cl-].[Cl-].[Cl-].[Cl-] [Cadmium chloride hemipentahydrate],0.0516
5,[Ca+2].[Cl-].[Cl-] [Calcium chloride dihydrate],365
6,[Ce+3].[Cl-].[Cl-].[Cl-] [Cerium(III) chloride],< 0.244
7,[Cl-].[Cs+] [Cesium chloride],2.14
8,O.O.O.O.O.O.[Cl][Cr]([Cl])[Cl] [Chromium(III) Chloride Hexahydrate],4.91
9,O.O.O.O.O.O.[Cl-].[Cl-].[Co+2] [Cobalt chloride hexahydrate],0.0867
10,"O=C(O)C[C@H](NCCN[C@@H](CC(=O)O)C(=O)O)C(=O)O [Ethylenediamine-N,N'-disuccinic acid]",< 0.122
11,[Cl][Fe]([Cl])[Cl] [Ferric chloride],> 50
